Data published in US20100286145A1, “ISOPHTHALAMIDE DERIVATIVES INHIBITING BETA-SECRETASE ACTIVITY” (CoMentis, Inc., priority 2007, published 2010).
Where two headings read alike, the source gives them in different places.

Tests used:
[1] = system: Aβ production in Chinese hamster ovary cells that over-express human APP695 with the London and Swedish mutations; experiment: Cellular Aβ IC50 determination (Aβ40 sandwich ELISA); assay type: cell-based; conditions: Cricetulus griseus; cellular Aβ production; read-out: IC50
Method in brief: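 CHO cells overexpressing human APP695 with London and Swedish mutations, seeded at 10% confluency, treated with compounds up to about 4 μM final (0.4% DMSO). Secreted Aβ40 measured by sandwich ELISA relative to control and fitted to a 4-parameter IC50 model.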

memapsin 2 = memapsin 2 (Homo sapiens, UniProt P56817); experiment: Inhibition of memapsin 2 beta-secretase activity (fluorogenic substrate FS-2); assay type: biochemical; conditions: memapsin 2, pH 4, 37° C., read-out: M2Ki
Method in brief: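 Memapsin 2 pre-incubated 20 min with compound at pH 4, 37° C, then FS-2 substrate (MCA-SEVNLDAEFK-DNP, APP Swedish cleavage site) added. Rate of fluorescence increase compared with uninhibited controls, fitted to a tight-binding inhibition model.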

memapsin 2, sequence (P56817 46-501): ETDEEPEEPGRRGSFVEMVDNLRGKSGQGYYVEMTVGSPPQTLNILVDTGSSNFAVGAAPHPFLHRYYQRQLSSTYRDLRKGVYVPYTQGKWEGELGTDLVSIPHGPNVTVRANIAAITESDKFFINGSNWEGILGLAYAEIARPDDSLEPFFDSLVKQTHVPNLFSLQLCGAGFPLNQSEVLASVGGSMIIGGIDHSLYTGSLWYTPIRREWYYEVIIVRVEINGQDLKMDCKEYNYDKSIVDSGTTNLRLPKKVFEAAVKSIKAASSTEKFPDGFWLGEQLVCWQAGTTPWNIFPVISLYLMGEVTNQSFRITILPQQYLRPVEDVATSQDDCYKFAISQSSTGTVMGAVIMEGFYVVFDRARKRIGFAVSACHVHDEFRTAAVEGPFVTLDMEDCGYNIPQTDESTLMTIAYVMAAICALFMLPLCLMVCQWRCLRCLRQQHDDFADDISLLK

IC50 [1] [nM] | Ki (memapsin 2; 20 minutes pre-incubation) [nM] | Ki (memapsin 2; fluorogenic substrate FS-2) [nM] | Compound
< 1000 | < 300 |  | Cc1csc(CN(C)C(=O)c2cccc(C(=O)N[C@@H](Cc3ccccc3)[C@H](O)CNCc3cc(N)cc(C(C)C)c3)c2)n1 [Compound 75, N1-((2S,3R)-4-(3-amino-5-isopropylbenzylamino)-3-hydroxy-1-phenylbutan-2-yl)-N3-methyl-N3-((4-methylthiazol-2-yl)methyl)isophthalamide]
1000 to 5000 | > 501 |  | Cc1csc(CN(C)C(=O)c2cccc(C(=O)N[C@@H](Cc3ccccc3)[C@H](O)CNCc3ccccn3)c2)n1 [Compound 64, N1-((2S,3R)-3-hydroxy-1-phenyl-4-(pyridin-2-ylmethylamino)butan-2-yl)-N3-methyl-N3-((4-methylthiazol-2-yl)methyl)isophthalamide]
< 1000 | < 300 |  | Cc1csc(CN(C)C(=O)c2cccc(C(=O)N[C@@H](Cc3ccccc3)[C@H](O)CNCc3cc(C(=O)O)cc(N(C)S(C)(=O)=O)c3)c2)n1 [Compound 139, 3-(((2R,3S)-2-hydroxy-3-(3-(methyl((4-methylthiazol-2-yl)methyl)carbamoyl)benzamido)-4-phenylbutylamino)methyl)-5-(N-methylmethylsulfonamido)benzoic acid]
< 1000 | < 300 |  | COc1cccc(CNC[C@@H](O)[C@H](Cc2ccccc2)NC(=O)c2cc(C(=O)N(C)Cc3nc(C)cs3)cc(-c3ccccn3)c2)c1 [Compound 174, N1-((2S,3R)-3-hydroxy-4-(3-methoxybenzylamino)-1-phenylbutan-2-yl)-N3-methyl-N3-((4-methylthiazol-2-yl)methyl)-5-(pyridin-2-yl)isophthalamide]
< 1000 |  | < 300 | COC1(OC)CCN(c2cc(C(=O)N[C@@H](Cc3ccccc3)[C@H](O)CNCc3cncc(C(C)C)c3)cc(C(=O)N(C)Cc3nc(C)cs3)c2)C1 [Compound 299, 5-(3,3-dimethoxypyrrolidin-1-yl)-N1-((2S,3R)-3-hydroxy-4-((5-isopropylpyridin-3-yl)methylamino)-1-phenylbutan-2-yl)-N3-methyl-N3-((4-methylthiazol-2-yl)methyl)isophthalamide]
< 1000 | < 300 |  | Cc1csc(CN(C)C(=O)c2cccc(C(=O)N[C@@H](Cc3ccccc3)[C@H](O)CNCc3cccc(NCc4ccccc4)c3)c2)n1 [Compound 164, N1-((2S,3R)-4-(3-(benzylamino)benzylamino)-3-hydroxy-1-phenylbutan-2-yl)-N3-methyl-N3-((4-methylthiazol-2-yl)methyl)isophthalamide]
< 1000 |  | < 300 | CC(=O)Oc1cc(CNC[C@@H](O)[C@H](Cc2ccccc2)NC(=O)c2cccc(C(=O)N(C)Cc3nc(C)cs3)c2)cc(C(C)C)c1 [Compound 243, 3-(((2R,3S)-2-hydroxy-3-(3-(methyl((4-methylthiazol-2-yl)methyl)carbamoyl)benzamido)-4-phenylbutylamino)methyl)-5-isopropylphenyl acetate]
> 5000 | 301 to 500 |  | Cc1csc(CN(C)C(=O)c2cccc(C(=O)N[C@@H](Cc3ccccc3)[C@H](O)CNCc3cc(C(C)C)cc(N(C)C(=O)OCc4ccccc4)c3)c2)n1 [Compound 130, benzyl 3-(((2R,3S)-2-hydroxy-3-(3-(methyl((4-methylthiazol-2-yl)methyl)carbamoyl)benzamido)-4-phenylbutylamino)methyl)-5-isopropylphenyl(methyl)carbamate]
< 1000 |  | < 300 | Cc1csc(CN(C)C(=O)c2cc(C(=O)N[C@@H](Cc3ccccc3)[C@H](O)CNCc3cncc(C(C)C)c3)cc(-c3nccn3C)c2)n1 [Compound 271, N1-((2S,3R)-3-hydroxy-4-((5-isopropylpyridin-3-yl)methylamino)-1-phenylbutan-2-yl)-N3-methyl-5-(1-methyl-1H-imidazol-2-yl)-N3-((4-methylthiazol-2-yl)methyl)isophthalamide]
< 1000 | < 300 |  | Cc1csc(CN(C)C(=O)c2cc(C(=O)N[C@@H](Cc3ccccc3)[C@H](O)CNCc3cncc(C(C)C)c3)cc(-c3cccnc3)c2)n1 [Compound 200, N1-((2S,3R)-3-hydroxy-4-((5-isopropylpyridin-3-yl)methylamino)-1-phenylbutan-2-yl)-N3-methyl-N3-((4-methylthiazol-2-yl)methyl)-5-(pyridin-3-yl)isophthalamide]
> 5000 | > 501 |  | COc1cccc(CNC[C@@H](O)[C@H](Cc2ccccc2)NC(=O)c2cccc(C(=O)NCc3nccc(C)n3)c2)c1 [Compound 102, N1-((2S,3R)-3-hydroxy-4-(3-methoxybenzylamino)-1-phenylbutan-2-yl)-N3-((4-methylpyrimidin-2-yl)methyl)isophthalamide]
1000 to 5000 | 301 to 500 |  | Cc1csc(CN(C)C(=O)c2cccc(C(=O)N[C@@H](Cc3cscn3)[C@H](O)CNCc3cncc(C(C)C)c3)c2)n1 [Compound 183, N1-((2S,3R)-3-hydroxy-4-((5-isopropylpyridin-3-yl)methylamino)-1-(thiazol-4-yl)butan-2-yl)-N3-methyl-N3-((4-methylthiazol-2-yl)methyl)isophthalamide]
< 1000 | < 300 |  | Cc1csc(CNC(=O)c2cc(C(=O)N[C@@H](Cc3ccccc3)[C@H](O)CNCc3cncc(C(C)C)c3)cc(-c3ncco3)c2)n1 [Compound 197, N1-((2S,3R)-3-hydroxy-4-((5-isopropylpyridin-3-yl)methylamino)-1-phenylbutan-2-yl)-N3-((4-methylthiazol-2-yl)methyl)-5-(oxazol-2-yl)isophthalamide]
< 1000 | < 300 |  | C[C@@H](NC(=O)c1cc(C(=O)N[C@@H](Cc2ccccc2)[C@H](O)CNCc2cccc(C#N)c2)cc(N(C)S(C)(=O)=O)c1)c1ccccc1 [Compound 149, N1-((2S,3R)-4-(3-cyanobenzylamino)-3-hydroxy-1-phenylbutan-2-yl)-5-(N-methylmethylsulfonamido)-N3-((R)-1-phenylethyl)isophthalamide]
< 1000 | < 300 |  | CC(=O)Nc1cc(CNC[C@@H](O)[C@H](Cc2ccccc2)NC(=O)c2cccc(C(=O)N(C)Cc3nc(C)cs3)c2)cc(C(C)C)c1 [Compound 193, N1-((2S,3R)-4-(3-acetamido-5-isopropylbenzylamino)-3-hydroxy-1-phenylbutan-2-yl)-N3-methyl-N3-((4-methylthiazol-2-yl)methyl)isophthalamide]
< 1000 | < 300 |  | Cc1csc(CN(C)C(=O)c2cc(CF)cc(C(=O)N[C@@H](Cc3ccccc3)[C@H](O)CNCc3cncc(C(C)C)c3)c2)n1 [Compound 176, 5-(fluoromethyl)-N1-((2S,3R)-3-hydroxy-4-((5-isopropylpyridin-3-yl)methylamino)-1-phenylbutan-2-yl)-N3-methyl-N3-((4-methylthiazol-2-yl)methyl)isophthalamide]
< 1000 | < 300 |  | CNc1cccc(CNC[C@@H](O)[C@H](Cc2ccccc2)NC(=O)c2cccc(C(=O)N(C)Cc3nc(C)cs3)c2)c1 [Compound 167, N1-((2S,3R)-3-hydroxy-4-(3-(methylamino)benzylamino)-1-phenylbutan-2-yl)-N3-methyl-N3-((4-methylthiazol-2-yl)methyl)isophthalamide]
